Experimental data as given in patent publication US4517003A, “N-acyl phosphoric triamide urease inhibitors and urease inhibited urea based fertilizer compositions” (Allied Corporation, priority 1983, dated 1985).
Where two headings read alike, the source gives them in different places.

What was measured:
[1] = tested on: soil nitrification; assay: Nitrification inhibition efficacy test in soil; settings: Cazenovia silt loam pH 7.3, 14 days at 25° C.; for % Inhibition at 40 ug per gram of soil, t14 (Inhibition of Soil Nitrification): diammonium phosphate applied after 14 days (t14); for % Inhibition at 40 ug per gram of soil, t0 (Inhibition of Soil Nitrification): diammonium phosphate applied simultaneously (t0)
Protocol: Efficacy tests were conducted to evaluate the efficacy of certain representative phosphoric triamide compounds as nitrification inhibitors. All compounds were evaluated in Cazenovia silt loam soil (pH 7.3). The evaluations consisted of applying either simultaneously (to) or after 14 days (t14) a solution of 6.00 mg (300 ug/g soil) of diammonium phosphate in 1 mL of water to triplicate 20 g samples of air dry soil contained in 250 mL square glass bottles that had been treated with a solution of either 0 or 0.800 mg (40 ug/g soil) of the test compound in 5 mL of water. Each bottle was capped with perforated aluminum foil, incubated for 14 days at 25° C. after diammonium phosphate application, and then extracted with 100 mL of 2M potassium chloride containing 0.5 mg (5 mg/L) of phenylmercuric acetate. Each extract was allowed to settle, and an aliquot was frozen and then analyzed for nitrate using an autoanalyzer. The percent inhibition obtained during the incubation was calculated by the formula: [formula] where A is the nitrate recovered from unincubated soil before diammonium phosphate addition; B is nitrate recovered from uninhibited soil; and C is nitrate recovered from inhibited soil.
The compounds selected for use in the composition of this invention are N-(diaminophosphinyl)-2,2,2-trichloroacetamide, N-(diaminophosphinyl)-2,2-dichloroacetamide, and N-(diaminophosphinyl)-2-chloroacetamide.

[2] = target: T1, jack bean urease (Sigma, Type IX) (Canavalia ensiformis, UniProt P07374); assay: Jack bean urease inhibition (modified Bremner procedure, homogeneous solution); format: biochemical; settings: for inhibition at 0.01 µM: read-out: % Inhibition at Specific Inhibitor Concentrations 10^-8 M
T1 construct: purchased Sigma Type IX
T1 sequence (P07374 whole entry, looked up): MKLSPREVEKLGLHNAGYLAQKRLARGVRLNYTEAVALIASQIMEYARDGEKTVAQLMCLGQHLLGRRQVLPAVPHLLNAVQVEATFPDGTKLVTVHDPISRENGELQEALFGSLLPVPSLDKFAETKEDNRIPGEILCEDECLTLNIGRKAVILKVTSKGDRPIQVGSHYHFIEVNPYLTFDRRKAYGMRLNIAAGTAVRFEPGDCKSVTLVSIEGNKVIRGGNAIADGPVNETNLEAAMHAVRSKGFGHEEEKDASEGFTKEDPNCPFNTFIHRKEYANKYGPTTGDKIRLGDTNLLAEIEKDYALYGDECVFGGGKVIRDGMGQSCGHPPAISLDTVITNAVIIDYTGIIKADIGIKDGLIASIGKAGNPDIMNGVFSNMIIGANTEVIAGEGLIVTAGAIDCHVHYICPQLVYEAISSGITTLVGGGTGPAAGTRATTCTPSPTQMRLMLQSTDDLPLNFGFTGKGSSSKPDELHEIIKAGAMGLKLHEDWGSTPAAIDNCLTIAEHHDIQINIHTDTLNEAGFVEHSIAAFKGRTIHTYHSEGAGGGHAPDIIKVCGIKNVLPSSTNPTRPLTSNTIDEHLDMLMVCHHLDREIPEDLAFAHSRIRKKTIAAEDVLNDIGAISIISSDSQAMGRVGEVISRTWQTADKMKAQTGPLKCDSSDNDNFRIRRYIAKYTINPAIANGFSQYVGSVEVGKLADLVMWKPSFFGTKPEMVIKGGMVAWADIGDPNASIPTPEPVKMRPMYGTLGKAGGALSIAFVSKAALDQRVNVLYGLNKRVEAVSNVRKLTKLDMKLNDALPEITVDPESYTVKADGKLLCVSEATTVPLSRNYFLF
Protocol: Efficacy tests were also conducted with jack bean urease. The procedure of Bremner (see L. A. Douglas and J. M. Bremner, Soil Biol. Biochem., 3, 859-62 (1970) and references therein) was modified by replacing the soil as the source of urease with commercial purified jack bean urease (Sigma, Type IX). The incubation then proceeds in homogeneous solution.
The prior art compound selected for comparative testing was N-(diaminophosphinyl)-p-chlorobenzamide, and the compounds selected for use in the composition of this invention are N-(diaminophosphinyl)-2,2,2-trichloroacetamide, N-(diaminophosphinyl)-2,2-dichloroacetamide, and N-(diaminophosphinyl)-2-chloroacetamide The test procedure employed was identical to that used in Example VII.

[3] = tested on: soil urease; assay: Urease inhibition efficacy test in soil; format: biochemical; settings: Cazenovia silt loam, pH 7.2, incubated at 25° C. for three days, triplicate
Protocol: Efficacy tests were conducted to evaluate the efficacy of certain representative phosphoric triamide compounds as urease inhibitors. The inhibition tests were run in a New York soil (Cazenovia silt loam, pH 7.2). […] The bottle was capped with perforated aluminum foil and incubated at 25° C. for three days prior to extraction with 100 mL of a 2M KCl solution containing 0.5 mg of phenylmercuric acetate. The extracts were then analyzed for remaining urea using an autoanalyzer. Percent inhibition was calculated as [formula] Where A is urea recovered from unincubated sample (urea added to soil and immediately extracted); B is urea recovered from inhibited sample; and C is urea recovered from the control (uninhibited sample).

[4] = Solubility in ice-cold water (observation during work-up); format: physicochemical
Protocol: The titled compound was prepared in accordance with the procedure of Example I. Using 2-chloroacetamide (7.02 g, 75 mmol), phosphorus pentachloride (15.6 g, 75 mmol) and formic acid (2.9 mL, […]), were reacted to form 16.0 g of N-(dichlorophosphinyl)-2-chloroacetamide, which was reacted with anhydrous ammonia in ether to form N-(diaminophosphinyl)-2-chloroacetamide.

[5] = Table II, 10^-6 M inhibitor, jack bean urease, read-out: % Inhibition at Specific Inhibitor Concentration 10^-6 M
[6] = Table II, 10^-7 M inhibitor, jack bean urease, read-out: % Inhibition at Specific Inhibitor Concentration 10^-7 M
[7] = Table III (comparison with prior art), 10^-6 M inhibitor, jack bean urease, read-out: % Inhibition at Specific Inhibitor Concentrations 10^-6 M
[8] = Table III (comparison with prior art), 10^-7 M inhibitor, jack bean urease, read-out: % Inhibition at Specific Inhibitor Concentrations 10^-7 M

COc1ccc(C(=O)NP(N)(N)=O)cc1 [N-(Diaminophosphinyl)-4-methoxybenzamide, N-(diaminophosphinyl)-4-methoxybenzamide, reference compound]
% Inhibition at 40 ug per gram of soil, t14 (Inhibition of Soil Nitrification) [1]: 13% | % Inhibition at 40 ug per gram of soil, t0 (Inhibition of Soil Nitrification) [1]: 4%

N#CCC(=O)NP(N)(N)=O [Example V, N-(Diaminophosphinyl)-2-Cyanoacetamide]
inhibition at 1 µM [2, 5]: 56%

NP(N)(=O)NC(=O)C(Cl)Cl [Example I, N-(Diaminophosphinyl)-2,2-dichloroacetamide]
% Inhibition at 40 ug per gram of soil, t14 (Inhibition of Soil Nitrification) [1]: 9% | % Inhibition at 40 ug per gram of soil, t0 (Inhibition of Soil Nitrification) [1]: 18% | % Inhibition at 40 ug per gram of soil (Inhibition of Soil Urease) [3]: 73% | inhibition at 1 µM [2, 5]: 100% | inhibition at 0.1 µM [2, 6]: 80 to 100% | inhibition at 1 µM [2, 7]: 100% | inhibition at 0.1 µM [2, 8]: 100%

NP(N)(=O)NC(=O)CCl [Example II, N-(Diaminophosphinyl)-2-chloroacetamide]
% Inhibition at 40 ug per gram of soil, t14 (Inhibition of Soil Nitrification) [1]: 0% | % Inhibition at 40 ug per gram of soil, t0 (Inhibition of Soil Nitrification) [1]: 2% | % Inhibition at 40 ug per gram of soil (Inhibition of Soil Urease) [3]: 83% | inhibition at 1 µM [2, 5]: 100% | inhibition at 0.1 µM [2, 6]: 81% | inhibition at 1 µM [2, 7]: 100% | inhibition at 0.1 µM [2, 8]: 50% | Solubility in water [4]: very soluble even in ice-cold water

NP(N)(=O)NC(=O)c1ccc(Cl)cc1 [N-(Diaminophosphinyl)-p-chlorobenzamide, N-(diaminophosphinyl)-p-chlorobenzamide, reference compound]
inhibition at 1 µM ([2]; read-out: % Inhibition at Specific Inhibitor Concentrations 10^-6 M): 83% | inhibition at 0.1 µM ([2]; read-out: % Inhibition at Specific Inhibitor Concentrations 10^-7 M): 20% | inhibition at 0.01 µM [2]: 14%

NP(N)(=O)NC(=O)C(Cl)(Cl)Cl [Example III, N-(Diaminophosphinyl)-2,2,2-trichloroacetamide]
% Inhibition at 40 ug per gram of soil, t14 (Inhibition of Soil Nitrification) [1]: 3% | % Inhibition at 40 ug per gram of soil, t0 (Inhibition of Soil Nitrification) [1]: 47% | % Inhibition at 40 ug per gram of soil (Inhibition of Soil Urease) [3]: 64% | inhibition at 1 µM [2, 5]: 93 to 100% | inhibition at 0.1 µM [2, 6]: 70% | inhibition at 0.1 µM [2, 8]: 78% | inhibition at 0.01 µM ([2]; Table III (comparison with prior art), 10^-8 M inhibitor, jack bean urease): 13%

NP(N)(=O)NC(=O)C(F)(F)F [IV, N-(Diaminophosphinyl)-2,2,2-trifluoroacetamide]
% Inhibition at 40 ug per gram of soil (Inhibition of Soil Urease) [3]: 52% | inhibition at 1 µM [2, 5]: 100% | inhibition at 0.1 µM [2, 6]: 22%
